A short description of data set [1]: Actual solubility in aqueous buffers / cosolvent (HPLC, spectrophotometer). The format is physicochemical. How it is done:
The actual solubility of certain compounds of the invention was assessed in aqueous buffers and final concentration of compounds was determined using HPLC and spectrophotometer methodologies. […] Therefore, compounds that were designed following the same rational yielded unexpectedly divergent outcome, for instance in connection with solubility in aqueous solutions.
It should be noted that following lyophilization compound 18F could be dissolved in 80 mM phosphate buffer at pH 6.9 even more efficiently at concentrations up to 60 mg/ml, about two order of magnitudes higher than expected.
Approximately 11 g of compound 18F were lyophilized in one lyophilization cycle. A cosolvent mixture comprising 38.6% w/v of compound 18F was divided into several dishes to fit the lyophilization chamber. As a result of lyophilization, a dry product with improved physical properties such as flowability and less stickiness was obtained.

The test system of another data set is visceral pain. In words: Visceral pain, acetic acid induced writhing responses. Particulars: for inhibition of writhing responses as compared to vehicle treated group: 2 mg/kg i.v. It is filed as in vivo, ICR mice. How it is done:
For the i.v. part of the study, compounds were dissolved in CREMOPHOR®:Ethanol and diluted 1:20 in saline prior to injection, fifteen minutes before pain induction. When compounds were delivered per os, they were dissolved in phosphate buffer or in CREMOPHOR®:Ethanol as previously described and administered 1 hour before pain induction. Each treatment group, except for controls comprising at least 30 animals, was composed of at least 6 animals. Fifteen or sixty minutes later, depending on the route selected for drug administration, the mice were injected i.p. with 10 ml/kg of 0.6% acetic acid and the number of visceral pain related behaviors (writhing, stretching, contractions of the abdomen accompanied by an elongation of the body and extension of the hind limbs) is counted over a period of 5 minutes, starting 5 minutes after the acetic acid administration. These visceral pain related behaviors are globally defined as writhing responses (WR). The results are expressed as mean number of writhing responses±SEM. Data were analyzed using analysis of variance (ANOVA) followed by post-hoc Fisher test. A value of p<0.05 was considered to be statistically significant and is indicated on the figure by an asterisk over the relevant treatment group.
The following results were obtained at 2 mg/kg i.v. of test compounds or, in the case of the study performed with cannabinoid receptor antagonists, 1 mg/kg test compound or antagonist alone and 1 mg/kg test compound+1 mg/kg antagonist. In a separate study, it was shown that analgesic activity of compounds of the invention was dose related.

Data set [2] can be described thus: Stability in aqueous solutions. Particulars: 95 μg/ml in citrate buffer (pH 7.1), 4° C. It is filed as physicochemical. How it is done:
Stability of compounds of the invention in aqueous solutions was compared. Compounds were dissolved in buffer phosphate solutions and their concentration monitored using HPLC and spectrophotometer methodology. While compound 18F at concentration of 2 mg/ml in phosphate buffer (pH 7.0) was stable for at least 3 months at 4° C., compound 18B at concentration of 95 μg/ml in citrate buffer (pH 7.1) readily hydrolyzed in less than 24 hours at 4° C. Therefore, compounds that were designed following the same rational yielded unexpectedly divergent outcome, for instance in connection with stability in aqueous solutions.

In a further data set the target is CB2 receptor (Homo sapiens, UniProt P34972). As to the kind of experiment: CB2 binding assay.
Sequence of CB2 receptor (P34972 whole entry): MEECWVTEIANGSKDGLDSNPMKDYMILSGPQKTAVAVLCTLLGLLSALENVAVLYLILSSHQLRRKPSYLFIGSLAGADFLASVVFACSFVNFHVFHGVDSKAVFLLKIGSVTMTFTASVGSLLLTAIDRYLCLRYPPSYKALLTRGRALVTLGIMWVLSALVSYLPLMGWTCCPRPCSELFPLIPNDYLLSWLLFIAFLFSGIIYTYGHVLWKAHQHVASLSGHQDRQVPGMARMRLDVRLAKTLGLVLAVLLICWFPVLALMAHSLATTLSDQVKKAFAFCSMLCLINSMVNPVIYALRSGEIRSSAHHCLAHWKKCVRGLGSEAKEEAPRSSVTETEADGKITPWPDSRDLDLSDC
A further data set has as its target CB1 receptor (Homo sapiens, UniProt P21554). In words: CB1 binding assay.
Data set [3] has as its system iNOS. As to the kind of experiment: iNOS gene expression in LPS activated RAW 264.7 macrophages (real-time RT-PCR). The format is cell-based, mouse. Particulars: for inhibition of iNOS gene expression: 10 μM, 1 h pre-treatment, 3 hrs after LPS activation. As to the method:
(§1) RAW 264.7 macrophages, a mouse cell line (ATCC # TIB 71), were grown in Dulbecco's modified Eagle's medium (DMEM) with 4 mM L-glutamine adjusted to contain 1.5 g/L sodium bicarbonate, 4.5 g/L glucose, and 10% heat inactivated fetal bovine serum. Cells were grown in tissue culture flasks and seeded at appropriate density into 6 wells tissue culture plates. Four million Raw cells in half a milliliter were stimulated with 1 μg/ml Lipopolysaccharide E. coli 055:B5 (DIFCO Laboratories). The mouse macrophages were pre-treated for one hour with controls or 10 μM of test compounds, and later on activated with LPS. RNA samples were extracted from the cells 3 hrs after activation and iNOS gene expression levels were analyzed by real-time RT-PCR as previously described. For western blot analysis, compounds were tested at 1, 5 and 10 μM and cells were harvested 24 hrs after LPS stimulation. Supernatant were collected and NO secretion was analyzed using ELISA. Cells were washed 3 times with cold PBS, scrapped and lyzed in 100 μl cell lysis buffer containing 20 mM HEPES, pH 7.6, 150 mM NaCl, 1.5 mM MgCl2, 0.2 mM EDTA, 1% Triton X-100, 10% glycerol, 1 mM DTT, 1 mM PMSF, 10 μg/ml aprotinin. 5 µg/ml leupeptin, 10 mM p-nitrophenyl phosphate, 100 mM β-glycerophosphate, 1 mM sodium fluoride, and 0.1 μM sodium orthovanadate. Cells were lyzed on ice for 10 minutes before further processing.
The results of this experiment are expressed as fold activation of iNOS over non-activated macrophages, after normalization to cyclophilin A expression. Compound 18A inhibits 63% of iNOS gene expression, and compounds 18B, 18E and 18F inhibit 55%, 25% and 100% respectively. […] This surprising observation strengthen the fact that compounds of the invention, though chemically related, have distinct and unexpected properties.

In another data set the test system is RAW 264.7 macrophages. In words: NO secretion of LPS activated RAW 264.7 macrophages (ELISA). It is filed as cell-based. Particulars: Mus musculus, RAW264.7, 24 hrs after LPS stimulation. As to the method:
as §1, with “processing. […]” for “processing.”
(In general: An ELISA detects its analyte on a solid surface through an enzyme-linked reagent.)

Data set [4] relates to iNOS. As to the kind of experiment: iNOS protein expression in activated macrophages (western blot). The format is cell-based, mouse. Particulars: 1, 5 and 10 μM, 24 hrs after LPS stimulation. As to the method:
as §1, with “Cells were washed 3 times with cold PBS, scrapped and lyzed in 100 μl cell lysis buffer containing 20 mM HEPES, pH 7.6, 150 mM NaCl, 1.5 mM MgCl2, 0.2 mM EDTA, 1% Triton X-100, 10% glycerol, 1 mM DTT, 1 mM PMSF, 10 μg/ml aprotinin. 5 µg/ml leupeptin, 10 mM p-nitrophenyl phosphate, 100 mM β-glycerophosphate, 1 mM sodium fluoride, and 0.1 μM sodium orthovanadate. Cells were lyzed on ice for 10 minutes before further processing.” left out
To assess correlation between gene expression and protein expression, protein extracts were prepared from the various treated activated macrophages. […] Primary antibodies against cyclophilin A were used as control (Upstate, Cat# 07-313), and the amount of iNOS was assessed using NOS2 (C11) Santa Cruz antibodies (Cat# SC-7271) were hybridized for 2 hours at room temperature. […]
A general note: A western blot detects proteins with antibodies after separation by electrophoresis.

In the next data set the test system is MBP induced acute EAE. In words: MBP induced acute EAE. The format is in vivo, Lewis rats. Particulars: 0.5-1 mg/kg i.v., 3 days after clinical onset. As to the method:
In the present study, EAE was induced by injection of Myelin Basic Protein (MBP), a method known to model the acute phase of MS. In this model the onset of the disease is observed by the appearance of clinical symptoms about 10 days after induction. The disease progresses and the clinical score increases and peaks around day 15 and spontaneous recovery is observed around day 23 after induction of the disease.
Female Lewis rats (average body weight 130-180 g, Harlan, Israel) were injected s.c. into the hind paws with 25 μg of purified guinea pig myelin basic protein (MBP, Sigma) emulsified in 0.1 ml of Complete Freund's Adjuvant (Difco). Animals were maintained on a 12 hours light/12 hours dark regimen, at a constant temperature of 22° C., with food and water ad libitum. Starting from day 8 following induction, animals were followed up on a daily basis. The results are recorded as clinical score; score of 0 indicates a normal animal with no clinical signs, 0.5 indicates a loss of tonicity in the tail's distal part, 1 indicates whole tail paralysis, 1.5 indicates hind legs weakness in one leg, 2 indicates hind legs weakness in two legs, 2.5 indicates fore legs paralysis in one leg, 3 indicates paralysis of all four legs, 4 indicates complete body paralysis and moribund state and 5 indicates death. The clinical score of the animals is recorded for 15 days following onset of disease until the end of the study 25 days following induction and the area under the curve (AUC) is calculated over this period of time.
Few routes of administration were assessed and the treatments were either administered intravenously (in CE vehicle) or orally by gavage (in PB vehicle) at volume dose of 5 ml/kg.
Results are expressed as mean±SEM and the differences between the treatment groups were analyzed by analysis of variance (ANOVA) followed by Tukey's post hoc test. A value of p<0.05 was considered to be statistically significant and is indicated on the figure by an asterisk over the relevant treatment group.
Compound 18A was dissolved in CREMOPHOR EL®:ethanol and further diluted in physiological buffer prior to i.v. administration. It is now disclosed that compound 18F could be dissolved directly in 80 mM phosphate buffer (pH 6.4) and administered p.o. Compound 18F was administered by oral gavage at doses of 20, 30, 40, 50 and 60 mg/kg to animals showing clinical signs of the disease. Each treatment group comprised at least 10 animals at onset of disease. At some doses, experiments were repeated up to four times.

Data set [5] relates to Taxol® induced neuropathic pain. As to the kind of experiment: Taxol® induced neuropathic pain. It is filed as in vivo, Sprague Dawley rats. Particulars: gabapentin 100 mg/kg i.p., morphine 5 mg/kg i.p.; not statistically significant. How it is done:
Male Sprague Dawley rats (average body weight 150-200 g, Harlan, Israel) were administered i.p. with 6 mg/kg Taxol® (Bristol Myers Squibb, USA) every other day for 9 days. On day 13, baseline pain threshold was measured. One hour later, the animals were administered with 5 ml/kg i.p. of vehicle (PB) only and pain threshold was re-established. After an additional hour animals were treated with various doses of compound 18F ranging from 0.5 mg/kg up to 10 mg/kg administered i.p. Morphine at 5 mg/kg i.p. and gabapentin at 100 mg/kg i.p served as positive controls. Each treatment group comprised at least eight animals. One hour post drug administration pain threshold was monitored using thermal and mechanical stimuli as previously described. At the end of the study, rats were euthanized with sodium pentobarbitone 100 mg/kg i.p. Sample rats were then transfused with saline and heparinized 4% formaldehyde solution. The L4-L5 area of the spinal cord and the sciatic nerve were taken for histopathology assessment.
The time latencies for thermal hyperalgesia, and force needed to induce pain of the different treatment groups are compared, using one way ANOVA (analysis of variance), followed by Duncan's post hoc test. A p<0.05 value was considered statistically significant and is indicated on the figure by an asterisk over the relevant treatment group.

The subject of the next data set is EAE. Particulars: 40 mg/kg p.o. daily for 21 days from disease induction, cited from earlier work.

A word on the solubility: it is how much of the substance goes into solution per volume. Usually IC50 stands for the concentration at which inhibition is half-maximal. Lower therefore signals greater potency. In general, inhibition refers to how much of the control response was suppressed. Higher therefore signals a strong effect.

Sequence of CB1 receptor (P21554 whole entry): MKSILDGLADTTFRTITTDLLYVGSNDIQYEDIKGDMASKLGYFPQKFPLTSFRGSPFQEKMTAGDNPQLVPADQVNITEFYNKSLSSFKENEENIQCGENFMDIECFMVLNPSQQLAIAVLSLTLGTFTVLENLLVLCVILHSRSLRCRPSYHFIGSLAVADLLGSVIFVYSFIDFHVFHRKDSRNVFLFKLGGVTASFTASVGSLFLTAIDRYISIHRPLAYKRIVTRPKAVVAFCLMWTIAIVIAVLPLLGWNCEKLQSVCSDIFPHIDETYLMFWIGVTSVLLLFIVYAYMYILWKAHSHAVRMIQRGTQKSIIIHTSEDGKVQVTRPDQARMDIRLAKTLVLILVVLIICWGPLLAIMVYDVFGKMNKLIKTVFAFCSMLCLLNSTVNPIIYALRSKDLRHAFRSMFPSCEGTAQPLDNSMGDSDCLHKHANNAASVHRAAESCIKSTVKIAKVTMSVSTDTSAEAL

Regarding `CCCCCCC(C)(C)c1cc(O)c([C@H]2CC(=O)C3CC2C3(C)C)c(OC(=O)CCC(=O)O)c1` (single isomer, unassigned; (-)) [Compound 18B, (−)-4-{4-[1,1-dimethylheptyl]-2-succinate-6-hydroxy-phenyl}-6,6-dimethyl-bicyclo[3.1.1]heptan-2-one], the “divergence of solubility from prediction” value in [1] (aqueous citrate buffer (pH 7.1) vs calculated) was under 4 fold. The solubility in data set [1] (aqueous citrate buffer, pH 7.1, aqueous buffer, thermodynamic from solid, aqueous citrate buffer (pH 7.1), read-out: actual solubility) was at most 95 µg/mL. Also, the “inhibition of writhing responses as compared to vehicle treated group” value with visceral pain came out at 95%. Further, the “inhibition of pain response as compared to untreated animals” value in the data set with visceral pain (10 mg/kg p.o. in phosphate buffer) was determined as 88%. Besides, in [2], the “time to hydrolysis in solution” value is “less than 24 hours”. Further, the IC50 is 1.2 nM at CB2 receptor and 41 nM at CB1 receptor. For the same compound, the “inhibition of iNOS gene expression” value with iNOS [3] is reported as 55%.

`CCCCCCC(C)(C)c1cc(O)c([C@H]2CC(=O)[C@H]3C[C@@H]2C3(C)C)c(O)c1` [Compound 18A, (−)-4-[4-(1,1-Dimethylheptyl)-2,6-dihydroxy-phenyl]-6,6-dimethyl-bicyclo[3.1.1]heptan-2-one] yielded an inhibition at 10 µM with RAW 264.7 macrophages of 63%. The “iNOS protein band (western blot)” value with iNOS [4] was “clear dose dependent disappearance of iNOS protein band”. Besides, the “inhibition of the number of writhing responses” value with visceral pain (1 mg/kg i.v.) is 90%. For the same compound, the “effect of addition of CB1 antagonist on analgesic activity” value in the data set on visceral pain (1 mg/kg i.v. + 1 mg/kg SR141716A) is “totally blocked”. Besides, the “effect of addition of CB2 antagonist on analgesic activity” value in the data set with visceral pain (1 mg/kg i.v. + 1 mg/kg SR144528) was “did not affect”. Moreover, in the data set with visceral pain, the “inhibition of writhing responses as compared to vehicle treated group” value was “total inhibition”. Besides, in the data set on visceral pain (10 mg/kg p.o. in CREMOPHOR®:Ethanol), the “inhibition of writhing responses” value came out at 70%. Also, the 50% inhibitory concentration (IC50) on CB2 receptor was 1 nM; at CB1 receptor, 27.6 nM. Besides, the “reduction in AUC of clinical score” value in the data set with MBP induced acute EAE is on record as 30-35%. Also, the “effect of CB1 or CB2 antagonists on iNOS inhibiting activity” value in the data set with iNOS [3] (5 μM of SR-141716 and SR-144528) was “reversed by co-administration of either CB1 or CB2 antagonists”. Besides, the “inhibition of iNOS gene expression” value in the data set with iNOS [3] is 63%.

Consider `NCC1(CC(=O)O)CCCCC1` [Gabapentin, reference compound], for which, in the data set on visceral pain (fumaric acid up to 5 mg/kg, Gabapentin up to 200 mg/kg, celecoxib up to 10 mg/kg), the “activity in visceral pain model” value was “inactive”. For the same compound, the “effect on pain threshold” value in data set [5] is “trend of increasing the pain threshold”.

Turning to `CN1CC[C@]23c4c5ccc(O)c4O[C@H]2[C@@H](O)C=C[C@H]3[C@H]1C5` [morphine, reference compound], the “effect on pain threshold” value in [5] is “trend of increasing the pain threshold”.

For the compound `CCCCCc1cc(O)c2c(c1)OC(C)(C)[C@@H]1CC=C(C)C[C@@H]21` [Δ^8-THC, reference compound], the “decrease of mean disease severity” value with EAE is listed as 20%. The mean disease severity in the data set with EAE (vehicle 5.5±0.8) was 4.4±0.8. Moreover, the “solubility in aqueous buffer” value in data set [1] (in words) was “not soluble in aqueous buffer”. For the same compound, in the data set with visceral pain (10 mg/kg p.o. in CREMOPHOR®:Ethanol, not statistically significant vs vehicle), the “decrease of number of writhing responses as compared to the untreated group” value stood at 47%.

(Values after patent US20090068143A1, “ORALLY EFFECTIVE C[…]” (priority 2005, published 2009).)
